These results are taken from US6693192B1, “Hypolipidemic and antioxidant morpholine derivatives” (Elpen S.A., priority 1999, dated 2004).

In this assay the test system is hyperlipidemia induced by the Triton WR 1339 in rats. Description: Hypolipidemic activity: inhibition of hyperlipidemia induced by Triton WR 1339 in rats. The assay is classed as in vivo, rat. Conditions: male Fischer rats, Triton WR 1339 200 mg/Kg i.p., dose 56 μmol/kg ip, plasma after 24 hours. The protocol: The hypocholesterolemic and hypolipidemic activity of the synthesised compounds was performed by the inhibition of the hyperlipidemia induced by the Triton WR 1339 in rats. Triton WR 1339 as an intraperitoneal (i.p.) injection acts due to induction of HMG-CoA reductase. […] After 24 hours, blood was taken from the celiac aorta and collected to heparinised tubes.

Marks after values point to notes of the source that are not given here.

Regarding `CC(C)(Sc1cc(C(C)(C)C)c(O)c(C(C)(C)C)c1)Sc1cc(C(C)(C)C)c(O)c(C(C)(C)C)c1` [Probucol], the “Percent decrease compared to controls, LDL (plasma Low Density Lipoprotein)” value is on record as 18^NS %; the “Percent decrease compared to controls, TC (plasma Total Cholesterol)” value is on record as 18* %; the “Percent decrease compared to controls, TG (plasma Triglyceride)” value was 11^NS %.
